The source made the active and inactive calls.
What was measured:
Mus musculus [1] = experiment: Antiarthritic activity against collagen-II induced rheumatoid arthritis DBA-1 mouse model assessed as reduction in clinical score at 100 mg/kg administered for 14 days on day 60 to day 74 post-immunization; assay type: functional, organism-based; conditions: time 14.0 day
Mus musculus [2] = experiment: Antiarthritic activity against collagen-II induced rheumatoid arthritis DBA-1 mouse model assessed as reduction in serum TNF-alpha level at 100 mg/kg administered for 14 days on day 60 to day 74 post-immunization by ELISA; assay type: functional, organism-based; conditions: time 14.0 day
Mus musculus [3] = experiment: Antiarthritic activity against collagen-II induced rheumatoid arthritis DBA-1 mouse model assessed as reduction in serum IL-1beta level at 100 mg/kg administered for 14 days on day 60 to day 74 post-immunization by ELISA; assay type: functional, organism-based; conditions: time 14.0 day
Mus musculus [4] = experiment: Antiarthritic activity against collagen-II induced rheumatoid arthritis DBA-1 mouse model assessed as reduction in serum IL-6 level at 100 mg/kg administered for 14 days on day 60 to day 74 post-immunization by ELISA; assay type: functional, organism-based; conditions: time 14.0 day
Mus musculus [5] = experiment: Antiarthritic activity against collagen-II induced rheumatoid arthritis DBA-1 mouse model assessed as reduction in blood TNF-alpha mRNA level at 100 mg/kg administered for 14 days on day 60 to day 74 post-immunization by RT-qPCR assay; assay type: functional, organism-based; conditions: time 14.0 day
Mus musculus [6] = experiment: Antiarthritic activity against collagen-II induced rheumatoid arthritis DBA-1 mouse model assessed as reduction in blood IL-1beta mRNA level at 100 mg/kg administered for 14 days on day 60 to day 74 post-immunization by RT-qPCR assay; assay type: functional, organism-based; conditions: time 14.0 day
Mus musculus [7] = experiment: Antiarthritic activity against collagen-II induced rheumatoid arthritis DBA-1 mouse model assessed as reduction in blood IL-6 mRNA level at 100 mg/kg administered for 14 days on day 60 to day 74 post-immunization by RT-qPCR assay; assay type: functional, organism-based; conditions: time 14.0 day
Mus musculus [8] = experiment: Antiarthritic activity against collagen-II induced rheumatoid arthritis DBA-1 mouse model assessed as reduction in TNF-alpha protein level at 100 mg/kg administered for 14 days on day 60 to day 74 post-immunization by immunohistochemistry analysis; assay type: functional, organism-based; conditions: time 14.0 day
Mus musculus [9] = experiment: Antiarthritic activity against collagen-II induced rheumatoid arthritis DBA-1 mouse model assessed as reduction in IL-1beta protein level at 100 mg/kg administered for 14 days on day 60 to day 74 post-immunization by immunohistochemistry analysis; assay type: functional, organism-based; conditions: time 14.0 day
Mus musculus [10] = experiment: Antiarthritic activity against collagen-II induced rheumatoid arthritis DBA-1 mouse blood CD4+ T cells assessed as reduction in Th1 cells differentiation at 100 mg/kg administered for 14 days on day 60 to day 74 post-immunization by flow cytometry analysis; assay type: functional, organism-based; conditions: T-cell, time 14.0 day
Mus musculus [11] = experiment: Antiarthritic activity against collagen-II induced rheumatoid arthritis DBA-1 mouse blood CD4+ T cells assessed as reduction in Th17 cells differentiation at 100 mg/kg administered for 14 days on day 60 to day 74 post-immunization by flow cytometry analysis; assay type: functional, organism-based; conditions: T-cell, time 14.0 day
Mus musculus [12] = experiment: Antiarthritic activity against collagen-II induced rheumatoid arthritis DBA-1 mouse spleen CD4+ T cells assessed as reduction in Th1 cells differentiation at 100 mg/kg administered for 14 days on day 60 to day 74 post-immunization by flow cytometry analysis; assay type: functional, organism-based; conditions: T-cell, time 14.0 day
Mus musculus [13] = experiment: Antiarthritic activity against collagen-II induced rheumatoid arthritis DBA-1 mouse spleen CD4+ T cells assessed as reduction in Th17 cells differentiation at 100 mg/kg administered for 14 days on day 60 to day 74 post-immunization by flow cytometry analysis; assay type: functional, organism-based; conditions: T-cell, time 14.0 day
Mus musculus [14] = experiment: Antiarthritic activity against collagen-II induced rheumatoid arthritis DBA-1 mouse blood CD4+ T cells assessed as reduction in T-bet mRNA level at 100 mg/kg administered for 14 days on day 60 to day 74 post-immunization by RT-qPCR assay; assay type: functional, organism-based; conditions: T-cell, time 14.0 day
Mus musculus [15] = experiment: Antiarthritic activity against collagen-II induced rheumatoid arthritis DBA-1 mouse blood CD4+ T cells assessed as reduction in RORgammaT mRNA level at 100 mg/kg administered for 14 days on day 60 to day 74 post-immunization by RT-qPCR assay; assay type: functional, organism-based; conditions: T-cell, time 14.0 day
Mus musculus [16] = experiment: Antiarthritic activity against collagen-II induced rheumatoid arthritis DBA-1 mouse blood CD4+ T cells assessed as increase in GATA3 mRNA level at 100 mg/kg administered for 14 days on day 60 to day 74 post-immunization by RT-qPCR assay; assay type: functional, organism-based; conditions: T-cell, time 14.0 day
Mus musculus [17] = experiment: Antiarthritic activity against collagen-II induced rheumatoid arthritis DBA-1 mouse blood CD4+ T cells assessed as increase in Foxp3 mRNA level at 100 mg/kg administered for 14 days on day 60 to day 74 post-immunization by RT-qPCR assay; assay type: functional, organism-based; conditions: T-cell, time 14.0 day
Mus musculus [18] = experiment: Antiarthritic activity against collagen-II induced rheumatoid arthritis DBA-1 mouse spleen CD4+ T cells assessed as reduction in T-bet mRNA level at 100 mg/kg administered for 14 days on day 60 to day 74 post-immunization by RT-qPCR assay; assay type: functional, organism-based; conditions: T-cell, time 14.0 day
Mus musculus [19] = experiment: Antiarthritic activity against collagen-II induced rheumatoid arthritis DBA-1 mouse spleen CD4+ T cells assessed as reduction in RORgammaT mRNA level at 100 mg/kg administered for 14 days on day 60 to day 74 post-immunization by RT-qPCR assay; assay type: functional, organism-based; conditions: T-cell, time 14.0 day
Mus musculus [20] = experiment: Antiarthritic activity against collagen-II induced rheumatoid arthritis DBA-1 mouse spleen CD4+ T cells assessed as increase in GATA3 mRNA level at 100 mg/kg administered for 14 days on day 60 to day 74 post-immunization by RT-qPCR assay; assay type: functional, organism-based; conditions: T-cell, time 14.0 day
Mus musculus [21] = experiment: Antiarthritic activity against collagen-II induced rheumatoid arthritis DBA-1 mouse spleen CD4+ T cells assessed as increase in Foxp3 mRNA level at 100 mg/kg administered for 14 days on day 60 to day 74 post-immunization by RT-qPCR assay; assay type: functional, organism-based; conditions: T-cell, time 14.0 day
CD4+ve Th [22] = experiment: Antiinflammatory activity against PMA induced DBA-1 mouse spleen CD4+ve Th cells assessed as reduction in TNF-alpha mRNA level at 50 to 100 uM incubated for 24 hrs by RT-qPCR assay; assay type: functional, cell-based; conditions: dose 50-100 µM
CD4+ve Th [23] = experiment: Antiinflammatory activity against PMA induced DBA-1 mouse spleen CD4+ve Th cells assessed as reduction in IL-1beta mRNA level at 50 to 100 uM incubated for 24 hrs by RT-qPCR assay; assay type: functional, cell-based; conditions: dose 50-100 µM
CD4+ve Th [24] = experiment: Antiinflammatory activity against PMA induced DBA-1 mouse spleen CD4+ve Th cells assessed as reduction in IL-6 mRNA level at 50 to 100 uM incubated for 24 hrs by RT-qPCR assay; assay type: functional, cell-based; conditions: dose 50-100 µM
Mus musculus [25] = experiment: Antiarthritic activity against collagen-II induced rheumatoid arthritis DBA-1 mouse model assessed as reduction in synovial hyperplasia at 100 mg/kg administered for 14 days on day 60 to day 74 post-immunization; assay type: functional, organism-based; conditions: time 14.0 day
Mus musculus [26] = experiment: Antiarthritic activity against collagen-II induced rheumatoid arthritis DBA-1 mouse model assessed as reduction in damage of articular cartilage at 100 mg/kg administered for 14 days on day 60 to day 74 post-immunization; assay type: functional, organism-based; conditions: time 14.0 day
Mus musculus [27] = experiment: Antiarthritic activity against collagen-II induced rheumatoid arthritis DBA-1 mouse model assessed as reduction in IL-17 protein level at 100 mg/kg administered for 14 days on day 60 to day 74 post-immunization by immunohistochemistry analysis; assay type: functional, organism-based; conditions: time 14.0 day

Measured: Activity

CC(C)[C@@H]1CC[C@@H](C)CC1=O
active: Mus musculus [1] | Mus musculus [2] | Mus musculus [3] | Mus musculus [4] | Mus musculus [5] | Mus musculus [6] | Mus musculus [7] | Mus musculus [8] | Mus musculus [9] | Mus musculus [10] | Mus musculus [11] | Mus musculus [12] | Mus musculus [13] | Mus musculus [14] | Mus musculus [15] | Mus musculus [16] | Mus musculus [17] | Mus musculus [18] | Mus musculus [19] | Mus musculus [20] | Mus musculus [21] | CD4+ve Th [22] | CD4+ve Th [23] | CD4+ve Th [24] | Mus musculus [25] | Mus musculus [26] | Mus musculus [27]
